Assay results reported in patent US11447485B2, “Class of bifunctional compounds with quanternary ammonium salt structure” (Beijing Showby Pharmaceutical Co., Ltd., priority 2016, dated 2022).

Legend:
[1] = molecular target: T1, human recombinant β1 adrenoceptor (Homo sapiens, UniProt P08588); experiment: cAMP accumulation, human recombinant β1 adrenoceptor; type: cell-based; settings: cAMP accumulation; 10 nM ICI118551 added; HEK293 cells; read-out: EC50 (β1)
T1 construct: expressed in transfected cells
Protocol: In order to measure the activity and selectivity of agonists to human β1 and β2 adrenoceptors, the cAMP accumulation of expressed receptors in each recombinant cell line was measured. cAMP was determined by homology radioimmunoassay, that is, cells were washed with PSB buffer solution and suspended in the buffer solution at room temperature to grow to 30000-40000 cells per well. The test compound was diluted with PSB buffer solution containing 0.1% BSA and tested at 11 gradient concentrations ranging from 100 uM to 0.1 pM. For the analysis of β1-adrenoceptor, 10 nM of ICI118551 was added to block the expression of β2-adrenoceptor in HEK293 cells. After the compound was added to the suspended cells, the scintillation plate was incubated at 37° C. for 10 minutes, the reaction was terminated with ice-cold detection buffer solution, and its radioactivity was measured after storage at 4° C. overnight.
The agonistic activity (pEC50 value) was analyzed by regression using S-type dose response model of software package (GraphPad Software, San Diego, Calif.). Selectivity was calculated from the ratio of measured cAMP of β1 and β2 adrenoceptors, which was expressed as sel. β1/β2=(EC50 (β1)/EC50 (β2)).

[2] = system: tracheal smooth muscle of guinea pig; experiment: Relaxation of CCh-induced constriction of isolated guinea pig tracheal smooth muscle (Experimental Example 1); settings: in vitro; for EC50: constriction induced by CCh 3 × 10^−6 mol/L, read-out: EC50 (μM) ± SD
[3] = molecular target: human recombinant M1 receptor (Homo sapiens, UniProt P11229); experiment: biochemical; type: binding; settings: 3H-QNB […], 25° C., 5 h; read-out: hM1Ki
[4] = molecular target: human recombinant M2 receptor (Homo sapiens, UniProt P08172); experiment: biochemical; type: binding; settings: 3H-QNB 1.81 nmol/L, 25° C., 5 h; read-out: hM2Ki
[5] = molecular target: T2, human recombinant β2 adrenoceptor (Homo sapiens, UniProt P07550); experiment: cell-based; type: cell-based
T2 construct: expressed in transfected cells

[6] = molecular target: human recombinant M3 receptor (Homo sapiens, UniProt P20309); experiment: biochemical; type: binding; settings: 3H-QNB […], 25° C., 5 h; read-out: hM3Ki
moderate and severe COPD = settings: phase II clinical study; cited from earlier work

Sequence of human recombinant M2 receptor (P08172 whole entry): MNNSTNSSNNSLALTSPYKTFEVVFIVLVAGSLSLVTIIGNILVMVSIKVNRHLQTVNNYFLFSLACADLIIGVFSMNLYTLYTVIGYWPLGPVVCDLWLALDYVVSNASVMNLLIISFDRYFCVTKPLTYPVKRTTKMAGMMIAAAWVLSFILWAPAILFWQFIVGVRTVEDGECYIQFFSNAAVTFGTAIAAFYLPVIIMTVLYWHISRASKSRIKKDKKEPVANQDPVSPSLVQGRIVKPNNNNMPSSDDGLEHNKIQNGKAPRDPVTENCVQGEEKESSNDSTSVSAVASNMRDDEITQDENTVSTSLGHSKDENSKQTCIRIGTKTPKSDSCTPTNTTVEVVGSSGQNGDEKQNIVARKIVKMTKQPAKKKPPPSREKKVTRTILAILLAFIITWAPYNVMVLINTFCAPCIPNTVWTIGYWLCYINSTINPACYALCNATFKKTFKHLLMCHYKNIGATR
T1 sequence (P08588 whole entry): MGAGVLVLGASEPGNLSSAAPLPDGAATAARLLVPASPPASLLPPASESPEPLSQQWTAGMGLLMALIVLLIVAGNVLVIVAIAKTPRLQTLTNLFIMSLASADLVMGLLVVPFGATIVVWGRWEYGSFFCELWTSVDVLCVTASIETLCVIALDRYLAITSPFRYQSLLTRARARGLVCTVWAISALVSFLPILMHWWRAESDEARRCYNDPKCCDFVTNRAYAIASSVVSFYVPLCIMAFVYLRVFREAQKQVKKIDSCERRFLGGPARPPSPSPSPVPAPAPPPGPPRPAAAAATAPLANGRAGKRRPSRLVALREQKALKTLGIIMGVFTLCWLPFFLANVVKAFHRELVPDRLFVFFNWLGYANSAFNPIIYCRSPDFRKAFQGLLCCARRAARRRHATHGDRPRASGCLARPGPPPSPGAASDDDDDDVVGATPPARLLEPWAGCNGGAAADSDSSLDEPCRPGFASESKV
Sequence of human recombinant M3 receptor (P20309 whole entry): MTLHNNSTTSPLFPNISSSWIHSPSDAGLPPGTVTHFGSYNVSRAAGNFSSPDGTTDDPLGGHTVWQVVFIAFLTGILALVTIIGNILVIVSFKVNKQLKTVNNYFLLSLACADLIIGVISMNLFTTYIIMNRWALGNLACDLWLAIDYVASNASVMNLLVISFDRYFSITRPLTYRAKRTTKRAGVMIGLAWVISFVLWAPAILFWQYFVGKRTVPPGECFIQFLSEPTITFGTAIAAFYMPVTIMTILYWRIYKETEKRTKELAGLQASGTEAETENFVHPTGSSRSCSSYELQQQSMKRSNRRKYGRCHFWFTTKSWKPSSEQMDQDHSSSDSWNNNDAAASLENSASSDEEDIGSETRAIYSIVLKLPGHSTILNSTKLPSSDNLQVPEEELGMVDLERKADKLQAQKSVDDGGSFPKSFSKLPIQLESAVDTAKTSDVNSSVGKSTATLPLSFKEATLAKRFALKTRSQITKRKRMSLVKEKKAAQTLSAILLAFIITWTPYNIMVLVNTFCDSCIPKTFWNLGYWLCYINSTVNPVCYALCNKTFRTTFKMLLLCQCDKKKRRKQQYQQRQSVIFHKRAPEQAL
Sequence of human recombinant M1 receptor (P11229 whole entry): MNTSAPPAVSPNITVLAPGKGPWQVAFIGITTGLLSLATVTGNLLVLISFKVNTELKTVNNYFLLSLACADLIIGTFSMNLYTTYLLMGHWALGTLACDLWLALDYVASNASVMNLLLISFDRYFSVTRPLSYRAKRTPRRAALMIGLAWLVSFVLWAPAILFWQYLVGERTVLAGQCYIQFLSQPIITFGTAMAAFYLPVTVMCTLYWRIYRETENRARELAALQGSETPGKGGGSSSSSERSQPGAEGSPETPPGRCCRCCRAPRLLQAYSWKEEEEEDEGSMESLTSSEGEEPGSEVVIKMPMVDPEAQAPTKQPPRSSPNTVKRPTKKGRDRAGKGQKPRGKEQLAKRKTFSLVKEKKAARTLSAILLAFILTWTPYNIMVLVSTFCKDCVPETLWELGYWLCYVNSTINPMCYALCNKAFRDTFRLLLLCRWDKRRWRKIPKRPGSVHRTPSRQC

Row | Compound | EC50 [1] [pM] | EC50 [2] [µM] | Ki [3] [pM] | Ki [4] [pM] | EC50 ([5]; cAMP accumulation) [pM] | Ki [6] [pM] | effect on moderate and severe COPD (moderate and severe COPD) | Onset time (min) ± SD ([2]; CCh 3 × 10^−6 mol/L) [min] | Time for eliminating inhibition effect (min) ([2]; CCh 3 × 10^−6 mol/L) | sel (β1/β2) [5]
1 | O=CNc1cc([C@@H](O)CNCc2c(Cl)cc(OCCC[N+]34CCC(CC3)[C@@H](OC[C@](O)(c3ccccc3)C3CCCC3)C4)cc2Cl)ccc1O.[Br-] [Compound 59, (R)-(−)-3-[(R)-2-hydroxy-2-cyclopentyl-2-phenyl]ethoxy-1-{3-[(3,5-dichloro-4-(1-{(R)-[2-hydroxy-2-(3-formamido-4-hydroxy)phenyl]ethylamino}methyl)phenoxy)propyl}-1-azabicyclo[2,2,2]octylonium bromide] | 83000 ± 31000 | 0.0165 ± 0.0075 | 283 ± 18 | 2000 ± 890 | 320 ± 120 | 131 ± 22 |  |  |  | 
2 | COc1cc(NC(=O)CCN2CCC(OC(=O)Nc3ccccc3-c3ccccc3)CC2)c(Cl)cc1CNC[C@H](O)c1ccc(O)c2[nH]c(=O)ccc12 [TD5959] |  |  |  |  |  |  | good effect on moderate and severe COPD |  |  | 
3 | (R)-(−)-3-[(R)-2-hydroxy-2-cyclopentyl-2-phenyl]ethoxy-1-{3-[(4-(3-methyl-1-{(R)-[2-hydroxy-2-(6-hydroxy-2H-1,4-benzoxazin-3(4H)-one-8-yl)]ethylamino}ethylidene)phenoxy]propyl}-1-azabicyclo[2,2,2]octylonium bromide [Compound 63] | 17000 ± 5800 | 0.0155 ± 0.0078 | 49.3 ± 21 | 323 ± 170 |  | 19.8 ± 12 |  | 6.19 ± 0.12 | more than 300 min | 80.8
